The numbers were not newly measured in patent publication US4384994A, “Renin inhibitory peptides” (Merck & Co., Inc., priority 1981, dated 1983), which cites them from elsewhere.

One data set has as its system hog renin. The conditions noted are these: nephrectomized rats, after injection of hog renin; Gross et al. 1971.
The next data set addresses pepsin (Homo sapiens, UniProt P0DJD8). To be noted: Umezawa et al. 1970.

pepsin, sequence (P0DJD8 63-388): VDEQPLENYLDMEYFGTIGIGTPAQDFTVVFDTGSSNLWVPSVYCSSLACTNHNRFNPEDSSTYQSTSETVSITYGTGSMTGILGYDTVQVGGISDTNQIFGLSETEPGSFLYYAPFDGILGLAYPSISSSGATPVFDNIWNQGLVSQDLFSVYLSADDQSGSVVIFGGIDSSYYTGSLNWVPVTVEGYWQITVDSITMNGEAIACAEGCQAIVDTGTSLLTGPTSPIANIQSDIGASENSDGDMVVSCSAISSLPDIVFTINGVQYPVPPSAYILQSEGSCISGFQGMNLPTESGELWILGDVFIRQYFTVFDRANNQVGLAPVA

With pepstatin, in the data set on hog renin, the “blood pressure in vivo” value was “reduce blood pressure”. Moreover, at pepsin, the inhibition of pepsin result was “inhibitor”.
